Consider 14 compounds from patent US9296741B2, “Bromodomain inhibitors” (priority 2012, dated 2016).

The structures appear in SMILES notation. A value given as a limit tells only on which side of the number the result lay.

The target in series [1] is human BRD4 first bromodomain (BDI_K57-E168) (Homo sapiens (Human), UniProt O60885). The experiment in a line: TR-FRET bromodomain binding assay, BRD4 first bromodomain.
Series [2] has as its target human BRD4 second bromodomain (BDII_E352-M457) (Homo sapiens (Human), UniProt O60885). The experiment in a line: TR-FRET bromodomain binding assay, BRD4 second bromodomain.
Series [3] relates to breast cancer cell line MX-1. Nature of the series: MX-1 cell line proliferation assay. It counts as cell-based, human. The conditions noted are these: Homo sapiens, MX1, 72 h; MX-1 cells, 3-day proliferation, Cell Titer Glo; read-out: Cellular proliferation: EC50.
Series [4] is described as follows: Human liver microsome stability assay. To be noted: both sexes, human, microsomes, pH 7.4. It counts as in vitro ADME.
Series [5] in a line: Rat liver microsome stability assay. It counts as in vitro ADME. To be noted: rat liver microsomes (male Sprague-Dawley), 0.5 μM test compound, pH 7.4, 37° C.; for half-life at 0.5 μM: 0.25 mg/mL microsomal protein, read-out: Stability in rat liver microsomes (t1/2 in minutes); for Stability in rat liver microsomes (t1/2 in minutes): […] microsomal protein.
Series [6] in a line: Mouse liver microsome stability assay. The conditions noted are these: male, CD1, mouse, microsomes, pH 7.4. It counts as in vitro ADME.

With `Cn1cc(-c2cc(NS(C)(=O)=O)ccc2OC2CCCOC2)c2cc[nH]c2c1=O` (stereo not drawn) [Example 60, N-[3-(6-methyl-7-oxo-6,7-dihydro-1H-pyrrolo[2,3-c]pyridin-4-yl)-4-(tetrahydro-2H-pyran-3-yloxy)phenyl]methanesulfonamide], the Ki in series [1] amounted to 0.75 nM; in series [2], 6.6 nM. In addition, in series [3], the EC50 was found to be 14.2 nM. In addition, the figures for the half-life at 0.5 μM in series [4], in series [5] and in series [6] were 68 min, 64 min and 34 min, respectively.

In the case of `Cn1cc(-c2cc(CNC(=O)CCC(=O)O)ccc2Oc2ccccc2)c2cc[nH]c2c1=O` [Example 42, 4-{[3-(6-methyl-7-oxo-6,7-dihydro-1H-pyrrolo[2,3-c]pyridin-4-yl)-4-phenoxybenzyl]amino}-4-oxobutanoic acid], the Ki in series [1] is 54.6 nM; in series [2], 93.4 nM. Also, the EC50 in series [3] was over 3000 nM. The half-life at 0.5 μM in series [4], in series [5] and in series [6] was over 120 min in each case.

As for `CCOC(=O)N1CCC(Oc2ccc(S(C)(=O)=O)cc2-c2cn(C)c(=O)c3[nH]ccc23)CC1` [Example 258, ethyl 4-[2-(6-methyl-7-oxo-6,7-dihydro-1H-pyrrolo[2,3-c]pyridin-4-yl)-4-(methylsulfonyl)phenoxy]piperidine-1-carboxylate], the Ki in series [1] was 5.9 nM; in series [2], 12.4 nM. Besides, in series [3], the EC50 came to 76.5 nM. In addition, the half-life at 0.5 μM in series [4] turned out to be 42 min; in series [5], 91 min; in series [6], 69.8 min.

`Cn1cc(-c2cc(-c3cccnc3)ccc2OCC2CC2)c2cc[nH]c2c1=O` [Example 315, 4-[2-(cyclopropylmethoxy)-5-(pyridin-3-yl)phenyl]-6-methyl-1,6-dihydro-7H-pyrrolo[2,3-c]pyridin-7-one]: the Ki was 37.6 nM in series [1] and 231 nM in series [2]. Moreover, in series [3], the EC50 turned out to be 160 nM. Moreover, the figures for the half-life at 0.5 μM in series [4], in series [5] and in series [6] were 34 min, 4 min and 11 min, respectively.

With `Cn1cc(-c2cc(S(C)(=O)=O)ccc2Oc2ccc(C#N)cc2)c2cc[nH]c2c1=O` [Example 156, 4-[2-(6-methyl-7-oxo-6,7-dihydro-1H-pyrrolo[2,3-c]pyridin-4-yl)-4-(methylsulfonyl)phenoxy]benzonitrile], the results for the Ki in series [1] and in series [2] were 11.3 nM and 20.9 nM, respectively. Further, in series [3], the EC50 turned out to be 114 nM. Moreover, the values for the half-life at 0.5 μM in series [4], in series [5] and in series [6] were over 120 min, over 120 min and 33 min, respectively.

Turning to `Cn1cc(-c2cc(S(C)(=O)=O)ccc2OC[C@H]2CCC(=O)N2)c2cc[nH]c2c1=O` [Example 226, 6-methyl-4-[5-(methylsulfonyl)-2-{[(2R)-5-oxopyrrolidin-2-yl]methoxy}phenyl]-1,6-dihydro-7H-pyrrolo[2,3-c]pyridin-7-one], the Ki in series [1] was 141 nM; in series [2], 438 nM. In addition, the EC50 in series [3] was over 3000 nM. For the same compound, the half-life at 0.5 μM in series [4] is 105 min; in series [5], over 120 min; in series [6] it was over 120 min.

For the compound `CCS(=O)(=O)N(CCN(C)C)c1ccc(Oc2ccc(F)cc2F)c(-c2cn(C)c(=O)c3[nH]ccc23)c1` [Example 296, N-[4-(2,4-difluorophenoxy)-3-(6-methyl-7-oxo-6,7-dihydro-1H-pyrrolo[2,3-c]pyridin-4-yl)phenyl]-N-[2-(dimethylamino)ethyl]ethanesulfonamide], the Ki worked out at 705 nM in series [1] and 101 nM in series [2]. Moreover, in series [3], the EC50 turned out to be 535 nM. The half-life at 0.5 μM was found to be 7 min in series [4], 13 min in series [5] and 6 min in series [6].

For `CCS(=O)(=O)Nc1ccc(Oc2cncnc2)c(-c2cn(C)c(=O)c3[nH]ccc23)c1` [Example 141, N-[3-(6-methyl-7-oxo-6,7-dihydro-1H-pyrrolo[2,3-c]pyridin-4-yl)-4-(pyrimidin-5-yloxy)phenyl]ethanesulfonamide], the Ki in series [1] was found to be 5.4 nM; in series [2], 15.2 nM. Further, the EC50 in series [3] came to 125 nM. For the same compound, the values for the half-life at 0.5 μM in series [4], in series [5] and in series [6] were over 120 min, 110 min and 49 min, respectively.

Regarding `Cn1cc(-c2cc(CO)ccc2Oc2ccccc2)c2cc[nH]c2c1=O` [Example 20, 4-[5-(hydroxymethyl)-2-phenoxyphenyl]-6-methyl-1,6-dihydro-7H-pyrrolo[2,3-c]pyridin-7-one], the Ki is 10.9 nM in series [1] and 0.68 nM in series [2]. For the same compound, the EC50 in series [3] stood at 190 nM. Besides, the half-life at 0.5 μM in series [4] is 18 min; in series [6] it was 7 min. Also, in series [5], the “Stability in rat liver microsomes (t1/2 in minutes)” value turned out to be 1 min.

On to `Cn1cc(-c2cc(C(=O)NC3CCS(=O)(=O)C3)ccc2Oc2ccccc2)c2cc[nH]c2c1=O` (stereo not drawn) [Example 18, N-(1,1-dioxidotetrahydrothiophen-3-yl)-3-(6-methyl-7-oxo-6,7-dihydro-1H-pyrrolo[2,3-c]pyridin-4-yl)-4-phenoxybenzamide], for which the Ki in series [1] amounted to 10.2 nM; in series [2], 10.3 nM. Moreover, in series [3], the EC50 is 209 nM. Further, the half-life at 0.5 μM in series [4] was 31 min; in series [5], 11 min; in series [6], 15 min.

On to `CC(C)S(=O)(=O)c1ccc(NCC2CC2)c(-c2cn(C)c(=O)c3[nH]ccc23)c1` [Example 261, 4-{2-[(cyclopropylmethyl)amino]-5-(propan-2-ylsulfonyl)phenyl}-6-methyl-1,6-dihydro-7H-pyrrolo[2,3-c]pyridin-7-one], for which the values for the Ki in series [1] and in series [2] were 1.5 nM and 1.6 nM, respectively. For the same compound, the EC50 in series [3] came out at 7.2 nM. Besides, the half-life at 0.5 μM in series [4] is 25 min; in series [5], 5 min; in series [6], 16 min.

In the case of `Cn1cc(-c2cc(C(=O)NCC(F)F)ccc2Oc2ccccc2)c2cc[nH]c2c1=O` [Example 16, N-(2,2-difluoroethyl)-3-(6-methyl-7-oxo-6,7-dihydro-1H-pyrrolo[2,3-c]pyridin-4-yl)-4-phenoxybenzamide], the values for the Ki in series [1] and in series [2] were 4.3 nM and 5.3 nM, respectively. For the same compound, in series [3], the EC50 is 94.6 nM. The results for the half-life at 0.5 μM in series [4], in series [5] and in series [6] were over 120 min, 4 min and 22 min, respectively.

As for `Cn1cc(-c2cc(CN3CCCS3(=O)=O)ccc2Oc2ccccc2)c2cc[nH]c2c1=O` [Example 41, 4-{5-[(1,1-dioxido-1,2-thiazolidin-2-yl)methyl]-2-phenoxyphenyl}-6-methyl-1,6-dihydro-7H-pyrrolo[2,3-c]pyridin-7-one], the Ki in series [1] was 2.8 nM; in series [2] it was 0.51 nM. The EC50 in series [3] was 29.8 nM. In addition, the half-life at 0.5 μM in series [4] was 13.6 min; in series [6] it was 10 min. Also, the “Stability in rat liver microsomes (t1/2 in minutes)” value in series [5] is 1 min.

Turning to `Cn1cc(-c2cc(CCO)ccc2OCc2ccccc2)c2cc[nH]c2c1=O` [Example 44, 4-[2-(benzyloxy)-5-(2-hydroxyethyl)phenyl]-6-methyl-1,6-dihydro-7H-pyrrolo[2,3-c]pyridin-7-one], the Ki in series [1] amounted to 286 nM; in series [2] it was 236 nM. Moreover, the EC50 in series [3] worked out at 828 nM. Further, the results for the half-life at 0.5 μM in series [4], in series [5] and in series [6] were 33.7 min, 6 min and 27 min, respectively.
